Results reported in patent US20220023289A1, “Application Of Pyrroloquinoline Quinone In Preparation Of Medicament Used For Preventing And Treating Acute Altitude Sickness And Acute Altitude Hypoxia Injury” (priority 2018, published 2022).

What was measured:
[1] = Body weight of mice before closed hypoxia tolerance test; conditions: 0.16 g/kg
[2] = system: rats with acute altitude hypoxia injury; experiment: Oxidative stress indexes of rats with acute altitude hypoxia injury; format: in vivo, Wistar rat
From the text: Operate according to the instructions, and then measure the absorbance value of each tube, and afterwards calculate the content of malondialdehyde in the sample to be tested according to the formula. […] The latter oxidizes hydroxylamine to form nitrite. It appears purplish red under the action of chromogenic agent. Measure its absorbance by a visible light spectrophotometer. When the measured sample contains superoxide dismutase, it has specific inhibitory effect on superoxide anion free radicals, make formed nitrite reduced. […] The superoxide dismutase activity in the tested sample can be calculated by formula calculation. […] The latter can form a stable complex with phenanthrophins and measure its antioxidant capacity by colorimetry. Operate according to the kit instructions, measure the absorbance of each tube at a wavelength of 520 nm, and then calculate the total antioxidant capacity in the sample to be tested according to the formula.

[3] = Mice weight before hypoxia tolerance test of simulated 10000 m altitude acute decompression; conditions: 0.16 g/kg
[4] = system: rats exposed to acute altitude hypoxia; experiment: Liver ATP and glycogen in rats exposed to acute altitude hypoxia; format: in vivo, Wistar rat
Description: Determination of adenosine triphosphate (ATP): Perform enzyme-linked immunosorbent assay by double-antibody one-step sandwich method. To the coated microwells pre-coated with rat adenosine triphosphate (ATP) capture antibody, add in sequence the specimens, standard, and HRP-labeled detection antibody, and then incubate and wash thoroughly. Use a substrate TMB for color development, TMB is converted into blue under the catalysis of peroxidase and converted into the final yellow color under the action of acid. The color intensity is positively correlated with the rat adenosine triphosphate (ATP) in the sample. […] Determination of liver glycogen (GC): Perform enzyme-linked immunosorbent assay by double-antibody one-step sandwich method. To the coated microwells pre-coated with rat liver glycogen (GC) capture antibody, add in sequence the specimens, standard, and HRP-labeled detection antibody, and then incubate and wash thoroughly. Use a substrate TMB for color development, TMB is converted into blue under the catalysis of peroxidase and converted into the final yellow color under the action of acid. The color intensity is positively correlated with the rat liver glycogen (GC) in the sample.

[5] = Rat body weight before the acute decompression hypoxia experiment (intragastric 7 days)
Description: Select healthy Wistar rats weight 160-200 g, half female and half male. After feeding for 3 days, these Wistar rats are randomly divided into ten groups according to their body weight, each group has 16±2 rats. The groups are divided as follows: five groups of the hypoxic exposure drug test group, respectively, are given 0.91 mg/kg, 1.83 mg/kg, 3.66 mg/kg, 7.31 mg/kg, and 14.63 mg/kg drugs. […] After continuous intragastric administration for 7 days, the animals in the hypoxic exposure group are simultaneously put into the decompression and hypoxia compound experimental chamber, the hatch is closed, and the pressure is reduced at a speed of 10 m/s. After being raised to an altitude of 6000 m and maintained for 8 hours, the speed in 10 m/s drops is reduced to normal altitude, open the hatch, and then take out the animal, collect blood samples (after standing for 1 hour, the supernatant is centrifuged and stored at −20° C.), and liver tissue samples. Detection indicator includes body weight, serum blood glucose, ATP, lactic acid, endothelin, nitric oxide, SOD, CO, MDA related to oxidative stress, and total protein, albumin, triglycerides, total cholesterol, high-density lipoprotein cholesterol, low-density lipoprotein cholesterol, glutamic pyruvic transaminase, total bilirubin, gluamic oxalacetic transaminase, serum urea nitrogen, creatinine, uric acid, lactate dehydrogenase, creatine kinase, α-hydroxybutyrate dehydrogenase; liver ATP, hepatic glycogen. Except that the formal oxygen control animal group is not put into the decompression and hypoxia compound experimental chamber, other experimental conditions and detection indicators are the same.

[6] = female rats, hypoxia, 0.11 g/kg
[7] = female rats, normoxia, 0.11 g/kg
[8] = seven days, repeat experiment in male mice

CC(=O)Nc1nnc(S(N)(=O)=O)s1 [Acetazolamide, reference compound]
weight 1 day ([1]; female mice): 20.27 ± 0.90 g
weight 3 days ([1]; female mice): 20.88 ± 1.50 g
weight 1 day ([1]; male mice): 15.41 ± 1.08 g
weight 3 days ([1]; male mice): 15.88 ± 1.24 g
Endo Dialdehyde [2, 6]: 13.09 ± 2.13 nmol/L
Superoxide dismutase [2, 6]: 57.11 ± 3.40 U/ml
Total antioxidants [2, 6]: 10.36 ± 0.81 U/ml
Endo Dialdehyde [2, 7]: 14.12 ± 0.32 nmol/L
Superoxide dismutase [2, 7]: 50.88 ± 3.34 U/ml
Total antioxidants [2, 7]: 10.31 ± 0.20 U/ml
effect on serum superoxide dismutase activity ([2]; hypoxia exposed female rats): increasing
effect on serum total antioxidants and malondialdehyde ([2]; hypoxia exposed female rats): no significant effects
effect on serum superoxide dismutase activity ([2]; hypoxia exposed male rats): increasing
effect on serum total antioxidants and malondialdehyde ([2]; male rats): no significant effects
Malonaldehyde ([2]; male rats, hypoxia, 0.11 g/kg): 3.24 ± 1.52 nmol/L
Superoxide dismutase ([2]; male rats, hypoxia, 0.11 g/kg): 182.51 ± 4.46 U/ml
Mice weight Female 1 day ([3]; administration for 14 days): 15.24 ± 0.89 g
Mice weight Female 7 days ([3]; administration for 14 days): 19.35 ± 3.12 g
Mice weight Male 1 day ([3]; administration for 14 days): 14.66 ± 1.52 g
Mice weight Male 7 days ([3]; administration for 14 days): 16.29 ± 3.25 g
Mice weight Male 14 days ([3]; administration for 14 days): 21.16 ± 3.61 g
Mice weight Female ([3]; administration for three days): 17.80 ± 0.94 g
Mice weight Male ([3]; administration for three days): 18.29 ± 0.85 g
Mice weight Male 1 day [3, 8]: 19.53 ± 0.93 g
Mice weight Male 7 days [3, 8]: 21.35 ± 2.47 g
Mice weight Female ([3]; single dose test): 17.31 ± 1.22 g
Mice weight Male ([3]; single dose test): 19.47 ± 0.57 g
effect on liver ATP and glycogen content ([4]; female rats, after hypoxia exposure and normoxia): no significant effects
liver Glycogen [4, 6]: 3.71 ± 0.27 ng/mL
liver ATP [4, 7]: 1.39 ± 0.54 µg/mL
liver Glycogen [4, 7]: 2.75 ± 1.13 ng/mL
effect on liver ATP and glycogen content ([4]; male rats): no significant effects
liver Glycogen ([4]; male rats, hypoxia, 0.11 g/kg): 2.14 ± 0.21 ng/mL
rat body weight Female 1 day ([5]; 0.11 g/kg): 153.4 ± 6.1 g
rat body weight Female 7 days ([5]; 0.11 g/kg): 163.3 ± 6.76 g
rat body weight Male 1 day ([5]; 0.11 g/kg): 172.4 ± 6.8 g
rat body weight Male 7 days ([5]; 0.11 g/kg): 189.1 ± 11.8 g
effect on body weight ([5]; female rats, 7 days): no significant effects
effect on weight ([5]; male rats, 7 days): decreased
